Test results from the NIST ThermoML archive (doi:10.1016/j.jct.2005.04.015).
± gives the expanded uncertainty stated by the source.

Assay: excess molar enthalpy (molar enthalpy of mixing); xn = mol fraction of the nth substance listed
Conditions: Liquid, Flow calorimetry

CCOC=O [ethyl methanoate] + CCCCO
excess molar enthalpy [kcal/mol]
Conditions | 298.15 K | 308.15 K
5000 kPa, x1 = 0.0499 | 0.0919 ± 0.00201 | –
5000 kPa, x1 = 0.1005 | 0.17 ± 0.00359 | –
5000 kPa, x1 = 0.1488 | 0.232 ± 0.00502 | –
5000 kPa, x1 = 0.2008 | 0.285 ± 0.00598 | –
5000 kPa, x1 = 0.2505 | 0.325 ± 0.00693 | –
5000 kPa, x1 = 0.3009 | 0.355 ± 0.00765 | –
5000 kPa, x1 = 0.3488 | 0.377 ± 0.00813 | –
5000 kPa, x1 = 0.4006 | 0.393 ± 0.00837 | –
5000 kPa, x1 = 0.4498 | 0.401 ± 0.0086 | –
5000 kPa, x1 = 0.4997 | 0.399 ± 0.0086 | –
5000 kPa, x1 = 0.6015 | 0.376 ± 0.00813 | –
5000 kPa, x1 = 0.65 | 0.356 ± 0.00765 | –
5000 kPa, x1 = 0.6991 | 0.33 ± 0.00693 | –
5000 kPa, x1 = 0.7489 | 0.294 ± 0.00621 | –
5000 kPa, x1 = 0.7993 | 0.252 ± 0.0055 | –
5000 kPa, x1 = 0.8503 | 0.202 ± 0.0043 | –
5000 kPa, x1 = 0.8983 | 0.148 ± 0.00311 | –
5000 kPa, x1 = 0.9507 | 0.073 ± 0.0016 | –
10000 kPa, x1 = 0.0497 | 0.0909 ± 0.00198 | –
10000 kPa, x1 = 0.1002 | 0.169 ± 0.00359 | –
10000 kPa, x1 = 0.1501 | – | 0.259 ± 0.0055
10000 kPa, x1 = 0.1514 | 0.233 ± 0.00502 | –
10000 kPa, x1 = 0.1999 | – | 0.314 ± 0.00669
10000 kPa, x1 = 0.2003 | 0.281 ± 0.00598 | –
10000 kPa, x1 = 0.2499 | 0.319 ± 0.00693 | –
10000 kPa, x1 = 0.2504 | – | 0.359 ± 0.00765
10000 kPa, x1 = 0.2989 | – | 0.39 ± 0.00837
10000 kPa, x1 = 0.3002 | 0.348 ± 0.00741 | –
10000 kPa, x1 = 0.3508 | – | 0.416 ± 0.00884
10000 kPa, x1 = 0.3513 | 0.372 ± 0.00789 | –
10000 kPa, x1 = 0.3998 | 0.385 ± 0.00837 | –
10000 kPa, x1 = 0.4007 | – | 0.431 ± 0.00908
10000 kPa, x1 = 0.449 | 0.393 ± 0.00837 | –
10000 kPa, x1 = 0.4514 | – | 0.438 ± 0.00932
10000 kPa, x1 = 0.4989 | 0.393 ± 0.00837 | –
10000 kPa, x1 = 0.4998 | – | 0.437 ± 0.00932
10000 kPa, x1 = 0.549 | – | 0.429 ± 0.00908
10000 kPa, x1 = 0.5494 | 0.385 ± 0.00813 | –
10000 kPa, x1 = 0.5988 | – | 0.414 ± 0.00884
10000 kPa, x1 = 0.6007 | 0.371 ± 0.00789 | –
10000 kPa, x1 = 0.6492 | 0.35 ± 0.00741 | 0.391 ± 0.00837
10000 kPa, x1 = 0.6984 | 0.324 ± 0.00693 | –
10000 kPa, x1 = 0.7004 | – | 0.361 ± 0.00765
10000 kPa, x1 = 0.7482 | 0.288 ± 0.00621 | –
10000 kPa, x1 = 0.7493 | – | 0.326 ± 0.00693
10000 kPa, x1 = 0.7987 | 0.244 ± 0.00526 | 0.281 ± 0.00598
10000 kPa, x1 = 0.8488 | – | 0.228 ± 0.00502
10000 kPa, x1 = 0.8499 | 0.193 ± 0.00406 | –
10000 kPa, x1 = 0.8996 | – | 0.165 ± 0.00359
10000 kPa, x1 = 0.9018 | 0.134 ± 0.00287 | –
10000 kPa, x1 = 0.9506 | 0.0751 ± 0.00165 | –
